Literature values as cited in patent US20170112856A1, “PHARMACEUTICAL COMPOSITION FOR TREATING CANCER IN AN INDIVIDUAL SUBJECT SUFFERING CANCER” (MA SHEN KAI RUEI CO., LTD., priority 2015, published 2017).

Columns and labels:
[1] = tested on: murine macrophages RAW264.7; details: LPS-induction
[2] = tested on: human colorectal cancer cells (COLO 205)
[3] = tested on: normal intestinal epithelial cells (FHC cells)
[4] = tested on: human HL60 leukemia cells

Compound: 4-acetyl-Antroquinonol B [Composition 4-acetyl-AQB]
- amount of free radicals of nitric oxide [1]: effectively reducing

Compound: Cc1cc(O)c2c(c1O)OCO2 [2,3-(methylenedioxy)-6-methyl-benzene-1,4-diol]
- amount of free radicals of nitric oxide [1]: effectively reducing

Compound: COc1cc(C)c(O)c(OC)c1O [2,4-dimethoxy-6-methyl-benzene-1,3-diol]
- amount of free radicals of nitric oxide [1]: effectively reducing

Compound: COc1cc(C)c(OC)c2c1OCO2 [SY-1]
- programmed death of cell ([2]; COLO 205, higher doses): induce programmed death of cell
- cell cycle ([2]; COLO 205, lower doses): remain in the G0/G1 phase
- impact on normal cells [3]: does not have an impact

Compound: C=C(CC[C@@H](C)[C@H]1CC[C@H]2C3=C(C(=O)C[C@]12C)[C@@]1(C)CCC(=O)[C@@H](C)C1CC3=O)C(C)C(=O)O (stereo partly drawn) [Zhankuic acid A, 4 α-methylergost-8,24(28)-dien-3,7,11-trion-26-oic acid]
- apoptosis [4]: inducing apoptosis

Compound: Antroquinonol B [AQB]
- amount of free radicals of nitric oxide [1]: effectively reducing
